# Results published in patent publication US20180064808A1, “COMBINATION THERAPY OF BISPECIFIC ANTIBODIES SPECIFIC FOR FAP AND DR5 AND CHEMOTHERAPEUTIC AGENTS” (Hoffmann-La Roche Inc., priority 2014, published 2018).
# Columns and labels:
# HT29 = experiment: Combination screen CRC cell lines (CellTiter-Glo); assay type: cell-based; details: n.s. = not significant
# Experimental: (§1) A panel of CRC and PDAC cell lines was assessed and combination partners of potential clinical relevance for the respective tumor indications were used for evaluation of combination effects (CRC: irinotecan, oxaliplatin, 5-FU, MDM2 inhibitor (RG7388), Bcl-2 inhibitor (ABT199); PDAC: Abraxane, Paclitaxel, Gemcitabine, Doxorubicin, MDM2i (RG7388), Bc12i (ABT199), Bortezomib, Cyclopamine, PARP inhibitor (PJ34)).
# (§2) Cells were seeded (numbers vary depending on the cell line) in black 96-well microplate with clear, flat bottom and incubated overnight at 37° C. and 5% CO2. After checking the adherence/confluence of cells, the medium was removed and 100 μl of fresh medium containing the corresponding compound was added to each well. A sequential dilution series (1:4) of 8 concentrations per compound (n=3) were used. Corresponding DMSO concentration and media alone were used as controls.
# (§3) After incubation for 3 days at 37° C. and 5% CO2, 100 μl per well CellTiter-Glo reagent (Promega) was added to the plate. Luminescence was measured after 30 minutes agitation at room temperature. IC50-values were calculated with XL-Fit software. Each experiment with one compound was repeated at least twice.
# (§4) Cells were seeded (numbers vary depending on the cell line) in black 96-well microplate with clear, flat bottom and incubated overnight at 37° C. and 5% CO2. After checking the adherence/confluence of cells, the medium was removed and 100 μl of fresh medium containing the corresponding compound or combination was added to each well.
# (§5) A sequential 1:3 dilution series of 9 concentrations of Drozitumab/anti-human-Fc was done on a 96-well PP-V-bottom microplate (n=6). […] 25 μl/well of the Drozitumab/anti-human-Fc series were then transferred to the cells.
# (§6) After incubation for 3 days at 37° C. and 5% CO2 100 μl per well CellTiter-Glo reagent (Promega) were given to the plates. Luminescence was measured after 30 minutes agitation at room temperature.
# (§7) For each concentration of Drozitumab/anti-human-Fc and Drozitumab/anti-human-Fc+compound triplicates were done on the same plate and each experiment was repeated at least twice.
# SW480 = experiment: Combination screen CRC cell lines (CellTiter-Glo); assay type: cell-based
# Experimental: as §1, §2, §3, §4, §5, §6, §7
# HCT116 = experiment: Combination screen CRC cell lines (CellTiter-Glo); assay type: cell-based, human
# Experimental: as §1, §2, §3, §4, §5, §6, §7
# Bxpc3 = experiment: Combination screen PDAC cell lines (CellTiter-Glo); assay type: cell-based; details: Bxpc3; for Fold change IC50 (DR5 ab mono vs combo) / % max. inhibition (combo): n.s. = not significant; for % max. inhibition (combo): second figure of mono/combo
# Experimental: as §1, §2, §3, §4, §5, §6, §7
# Aspc1 = experiment: Combination screen PDAC cell lines (CellTiter-Glo); assay type: cell-based; details: Aspc1; for Fold change IC50 (DR5 ab mono vs combo) / % max. inhibition (combo): n.s. = not significant; for % max. inhibition (combo): second figure of mono/combo
# Experimental: as §1, §2, §3, §4, §5, §6, §7
# Capan2 = experiment: Combination screen PDAC cell lines (CellTiter-Glo); assay type: cell-based; details: Capan2; for % max. inhibition (combo): second figure of mono/combo, n.s. = not significant
# Experimental: as §1, §2, §3, §4, §5, §6, §7
# Panc1 = experiment: Combination screen PDAC cell lines (CellTiter-Glo); assay type: cell-based; details: Panc1; for Fold change IC50 (DR5 ab mono vs combo) / % max. inhibition (combo): n.s. = not significant; for % max. inhibition (combo): second figure of mono/combo
# Experimental: as §1, §2, §3, §4, §5, §6, §7
# [1] = clinical studies; cited from earlier work
# FcγR mutant mice = details: cited from earlier work
# FAP = experiment: Binding mode, specificity and species cross-reactivity of FAP binder 28H1
# [2] = test system: LOX-IMVI desmoplastic melanoma xenograft; experiment: LOX-IMVI desmoplastic melanoma cell line based xenograft model; assay type: in vivo, nude mice; details: doxorubicin alone 5 mg/kg q7d
# Description: The in vivo antitumor efficacy of the bispecific antibody DR5-FAP (DR5 binder: VH SEQ ID NO.:7, VL SEQ ID NO.: 8, FAP binder: VH SEQ ID NO.:15, VL SEQ ID NO.: 16) could be detected in cell and fragment based patient derived (PDX) models of various tumor origin (e.g. CRC, pancreatic cancer, desmoplastic melanoma and sarcoma) transplanted on nude mice. As example data for combination efficacy of bispecific antibody DR5-FAP (DR5 binder: VH SEQ ID NO.:7, VL SEQ ID NO.: 8, FAP binder: VH SEQ ID NO.:15, VL SEQ ID NO.: 16) and chemotherapeutics that activate the intrinsic apoptosis pathway are shown for the CRC xenograft model DLD-1 and HCT116 (cell line based, co-injection model) and Co5896 (fragment based).
# The bispecific antibody DR5-FAP (DR5 binder: VH SEQ ID NO.:7, VL SEQ ID NO.: 8, FAP binder: VH SEQ ID NO.:15, VL SEQ ID NO.: 16) was provided as stock solution from Roche, Penzberg, Germany. Antibody buffer included histidine. Antibody solution was diluted appropriately in buffer from stock prior injections. An Fc mutant of the prior art DR5 specific antibody Drozitumab was provided as stock solution from Roche, Penzberg, Germany. This antibody comprises three amino acid substitutions in the Fc domain that abolish binding to an activating or inhibitory Fc receptor and/or effector function wherein said amino acid substitutions are L234A, L235A and P329G. […]
# [3] = test system: Sarc4605 sarcoma xenograft; experiment: Sarc4605 sarcoma fragment based patient derived xenograft model (PDX); assay type: in vivo, nude mice; details: doxorubicin alone 5 mg/kg q7d
molecule,measurement,setting,value
"CC1(C)CCC(CN2CCN(c3ccc(C(=O)NS(=O)(=O)c4ccc(NCC5CCOCC5)c([N+](=O)[O-])c4)c(Oc4cnc5[nH]ccc5c4)c3)CC2)=C(c2ccc(Cl)cc2)C1 [Bcl2i (ABT199), (4-(4-{[2-(4-chlorophenyl)-4,4-dimethylcyclohex-1-en-1-yl]methyl}piperazin-1-yl)-N-({3-nitro-4-[(tetrahydro-2H-pyran-4-ylmethyl)amino]phenyl}sulfonyl)-2-(1H-pyrrolo[2,3-b]pyridin-5-yloxy)benzamide)]",Fold change IC50 (DR5 ab mono vs combo),HT29,3
same,% max. inhibition (combo),HT29; second figure of mono/combo,n.s.
same,IC50 combo,"SW480; DR5 ab + Fc titrated in combination with 1x IC50 of the named compound, 3 days, n.s. = not significant",n.s.
same,% max. inhibition (mono),SW480; first figure of mono/combo,5%
same,Fold change IC50 (DR5 ab mono vs combo),SW480; n.s. = not significant,n.s.
same,% max. inhibition (combo),SW480; second figure of mono/combo,30%
same,Fold change IC50 (DR5 ab mono vs combo),HCT116,500
same,% max. inhibition (mono),HCT116; first figure of mono/combo,50%
same,% max. inhibition (combo),HCT116; second figure of mono/combo,80%
same,Fold change IC50 (DR5 ab mono vs combo),Bxpc3,n.s.
same,% max. inhibition (combo),Bxpc3,n.s.
same,Fold change IC50 (DR5 ab mono vs combo),Aspc1,n.s.
same,% max. inhibition (combo),Aspc1,n.s.
same,% max. inhibition (mono),Capan2; first figure of mono/combo,20%
same,% max. inhibition (combo),Capan2,60%
same,Fold change IC50 (DR5 ab mono vs combo),Panc1,n.s.
same,% max. inhibition (combo),Panc1,n.s.
Tigatuzumab: humanized DR5 agonistic antibody,maximally tolerated dose (MTD),[1],up to 8 mg/kg
Drozitumab: fully human DR5 agonistic antibody described in US2007/0031414 and WO 2006/083971,maximally tolerated dose (MTD),[1],> 20 mg/kg
same,in vivo activity,FcγR mutant mice,inactive
"28H1: FAP binder, VH SEQ ID NO. 15 / VL SEQ ID NO. 16, described in WO 2012/020006",Species Cross-Reactivity,FAP,"Human, cyno, murine"
same,Binding Mode,"FAP; cell wraps r13-r15: No interference with signaling/protease function, conformational epitope",conformational epitope
same,Specificity,"FAP; cell wraps r17-r18: No binding to hu DPP-IV (CD26, closest FAP homologue)",No binding to hu DPP-IV
"COc1cccc2c1C(=O)c1c(O)c3c(c(O)c1C2=O)C[C@@](O)(C(=O)CO)C[C@@H]3O[C@H]1C[C@H](N)[C@H](O)[C@H](C)O1 [Doxorubicin, (7S,9S)-7-[(2R,4S,5S,6S)-4-amino-5-hydroxy-6-methyloxan-2-yl]oxy-6,9,11-trihydroxy-9-(2-hydroxyacetyl)-4-methoxy-8,10-dihydro-7H-tetracene-5,12-dione]",tumor growth inhibition,[2],77%
same,tumor growth inhibition,[3],77%
same,% max. inhibition (mono),Bxpc3; first figure of mono/combo,25%
same,Fold change IC50 (DR5 ab mono vs combo),Bxpc3,2
same,% max. inhibition (combo),Bxpc3,70%
same,IC50,"Bxpc3; Homo sapiens, BXPC-3, 72 h, agent alone, 3 days, read-out: IC50 monotherapy",4000 nM
same,Fold change IC50 (DR5 ab mono vs combo),Aspc1,5
same,% max. inhibition (combo),Aspc1,n.s.
same,IC50,"Aspc1; Homo sapiens, 72 h, agent alone, 3 days, read-out: IC50 monotherapy",300 nM
same,% max. inhibition (combo),Capan2,n.s.
same,IC50,"Capan2; Homo sapiens, Capan-2, 72 h, agent alone, 3 days, read-out: IC50 monotherapy",1500 nM
same,IC50,"Panc1; Homo sapiens, PANC-1, 72 h, agent alone, 3 days, read-out: IC50 monotherapy",620 nM
same,Fold change IC50 (DR5 ab mono vs combo),Panc1,n.s.
same,% max. inhibition (combo),Panc1,n.s.
